Test results taken from patent US11161846B2, “Substituted pyrazolo[4,3-b]pyridines and their use as GluN2B receptor modulators” (JANSSEN PHARMACEUTICA NV, priority 2019, dated 2021).

Target: T1, human GluN1/GluN2B NMDA receptors (Homo sapiens, UniProt Q05586+Q13224)
T1 construct: expressed in transfected cells
Test: Calcium flux (FLIPR) assay on cloned human NR1/GluN2B ion channels expressed in mammalian cells, standard assay
Assay type: cell-based
Conditions: glutamate ~EC40 and 10 μM glycine, stable cell line with Tet-On induced expression
Procedure: Effects of Test Articles on Cloned Human NR1/GluN2B Ion Channels Expressed in Mammalian Cells
NMDA receptors are ion channels that are highly permeable to Ca^2+ ions, rendering it possible to monitor NMDA receptor function using cell-based calcium flux assay. In this assay, co-agonists glutamate and glycine are added to cells heterologously expressing human GluN1/GluN2B NMDA receptors to initiate cellular Ca^2+ influx. The time course of the changes in intracellular calcium is measured using a fluorescent dye and a FLIPR (Fluorometric Imaging Plate Reader) device.
Twenty four hours before measurements, the expression of the NMDA receptors in the stable cell line is induced with Tet-On inducible system in the presence of a non-selective NMDA receptor blocker. On the day of the experiment, cell culture media is carefully washed and the cells are loaded with Calcium 5 Dye Kit (Molecular Devices) in dye loading buffer containing 137 mM NaCl, 4 mM KCl, 2 mM CaCl2, 0.5 mM MgCl2 (standard assay) or 1.5 mM MgCl2 (HTS assay), 10 mM HEPES and 5 mM D-glucose; pH 7.4. After 1 h incubation at the room temperature, the dye is washed away with the assay buffer (137 mM NaCl (standard assay) or 150 mM (HTS assay), 4 mM KCl (standard assay) or 3 mM (HTS assay), 2 mM CaC2, 0.01 mM EDTA, 10 mM HEPES and 5 mM D-glucose; pH 7.4) In the FLIPR TETRA reader, various concentrations of the test compounds are added to the cells for 5 min while fluorescence is monitored to detect potential agonist activity. Next, co-agonists, glutamate and glycine are added for another 5 minutes. The concentration of glutamate corresponding to ˜EC40 (standard assay) or EC40 (HTS assay) is used to maximize the assay's signal window and ability to detect NMDA receptor antagonists and negative allosteric modulators. A saturating concentration (10 μM) of glycine is also present in the assay. A non-selective NMDA receptor antagonist, (+)MK-801 is used as a positive control for antagonist activity. The fluorescent signal in the presence of test compounds is quantified and normalized to the signal defined by the appropriate control wells.

T1 sequence (Q13224 27-1484, other chains not shown): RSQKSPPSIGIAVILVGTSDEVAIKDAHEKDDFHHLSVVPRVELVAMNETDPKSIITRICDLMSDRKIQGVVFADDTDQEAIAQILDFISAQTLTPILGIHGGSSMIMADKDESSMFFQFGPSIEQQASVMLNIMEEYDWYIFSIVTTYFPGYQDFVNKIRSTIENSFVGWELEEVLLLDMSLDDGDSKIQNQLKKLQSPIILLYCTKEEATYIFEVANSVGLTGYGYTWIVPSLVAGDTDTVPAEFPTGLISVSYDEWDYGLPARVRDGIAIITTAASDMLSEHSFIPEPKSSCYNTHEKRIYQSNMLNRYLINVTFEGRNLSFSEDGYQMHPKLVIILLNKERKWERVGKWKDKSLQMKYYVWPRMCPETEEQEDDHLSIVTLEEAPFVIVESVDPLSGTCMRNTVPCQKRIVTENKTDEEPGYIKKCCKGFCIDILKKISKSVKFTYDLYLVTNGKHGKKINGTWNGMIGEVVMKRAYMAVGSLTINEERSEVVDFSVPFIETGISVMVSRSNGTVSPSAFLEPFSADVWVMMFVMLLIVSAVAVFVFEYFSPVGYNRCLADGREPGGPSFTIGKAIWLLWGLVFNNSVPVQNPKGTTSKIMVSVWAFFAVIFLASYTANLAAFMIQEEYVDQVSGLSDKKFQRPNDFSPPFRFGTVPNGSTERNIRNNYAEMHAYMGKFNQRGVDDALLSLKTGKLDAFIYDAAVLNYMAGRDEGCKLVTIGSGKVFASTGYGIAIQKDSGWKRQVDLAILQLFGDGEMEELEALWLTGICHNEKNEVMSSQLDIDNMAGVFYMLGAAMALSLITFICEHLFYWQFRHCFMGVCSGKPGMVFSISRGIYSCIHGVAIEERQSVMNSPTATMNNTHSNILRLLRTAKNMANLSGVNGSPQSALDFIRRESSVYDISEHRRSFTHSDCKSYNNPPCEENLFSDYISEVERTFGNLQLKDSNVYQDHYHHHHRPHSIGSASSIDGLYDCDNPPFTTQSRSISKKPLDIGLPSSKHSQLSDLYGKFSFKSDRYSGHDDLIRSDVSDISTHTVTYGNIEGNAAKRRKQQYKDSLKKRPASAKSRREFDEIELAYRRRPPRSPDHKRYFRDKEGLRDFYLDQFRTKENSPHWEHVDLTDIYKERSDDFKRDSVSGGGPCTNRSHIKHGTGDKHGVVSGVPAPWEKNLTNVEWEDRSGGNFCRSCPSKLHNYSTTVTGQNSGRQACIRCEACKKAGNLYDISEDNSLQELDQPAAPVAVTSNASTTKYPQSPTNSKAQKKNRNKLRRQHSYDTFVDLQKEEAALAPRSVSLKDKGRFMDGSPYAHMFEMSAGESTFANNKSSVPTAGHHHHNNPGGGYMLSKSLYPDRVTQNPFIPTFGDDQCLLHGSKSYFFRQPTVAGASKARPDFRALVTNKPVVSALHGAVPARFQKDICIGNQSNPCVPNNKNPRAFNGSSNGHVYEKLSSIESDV

Row | Structure (SMILES) | IC50
1 | CC(C)C(Cn1ncc2ncc(-c3cccc(C(F)(F)F)c3)cc21)=NO (mixture of isomers) [Example 6, (E/Z)-3-Methyl-1-[6-[3-(trifluoromethyl)phenyl]pyrazolo[4,3-b]pyridin-1-yl]butan-2-one oxime] | 2480 nM
2 | CON=C(Cn1ncc2ncc(-c3cccc(C(F)(F)F)c3)cc21)C(C)C (mixture of isomers) [Example 105, (E/Z)-N-Methoxy-3-methyl-1-[6-[3-(trifluoromethyl)phenyl]pyrazolo[4,3-b]pyridin-1-yl]butan-2-imine] | 5250 nM
3 | ON=C(Cn1ncc2ncc(-c3cccc(C(F)(F)F)c3)cc21)C1CC1 (mixture of isomers) [Example 106, (E/Z)-1-Cyclopropyl-2-[6-[3-(trifluoromethyl)phenyl]pyrazolo[4,3-b]pyridin-1-yl]ethanone oxime] | 1490 nM
4 | CC(C)C(O)Cn1ncc2ncc(-c3cccc(C(F)(F)F)c3)cc21 (racemic) [Example 3, (RS)-3-Methyl-1-[6-[3-(trifluoromethyl)phenyl]pyrazolo[4,3-b]pyridin-1-yl]butan-2-ol] | 567 nM
5 | OC(Cn1ncc2ncc(-c3cc(F)c(F)c(F)c3)cc21)C1CC1 (racemic) [Example 10, (R/S)-1-Cyclopropyl-2-[6-(3,4,5-trifluorophenyl)pyrazolo[4,3-b]pyridin-1-yl]ethanol] | 696 nM
6 | COC(Cn1ncc2ncc(-c3cc(F)c(F)c(F)c3)cc21)C1CC1 (racemic) [Example 11, (R/S)-1-(2-Cyclopropyl-2-methoxy-ethyl)-6-(3,4,5-trifluorophenyl)pyrazolo[4,3-b]pyridine] | 1780 nM
7 | CN1CC(Cn2ncc3ncc(-c4ccc(F)c(OC(F)F)c4)cc32)CC1=O (racemic) [Example 19, (RS)-4-[[6-[3-(Difluoromethoxy)-4-fluoro-phenyl]pyrazolo[4,3-b]pyridin-1-yl]methyl]-1-methyl-pyrrolidin-2-one] | 992 nM
8 | CC[S+]([O-])Cn1ncc2ncc(-c3cccc(F)c3)cc21 (racemic) [Example 80, (RS)-1-(Ethylsulfinylmethyl)-6-(3-fluorophenyl)pyrazolo[4,3-b]pyridine] | 823 nM
9 | CC[S+]([O-])Cn1ncc2ncc(-c3ccc(F)c(F)c3)cc21 (racemic) [Example 82, (RS) 6-(3,4-Difluorophenyl)-1-(ethylsulfinylmethyl)pyrazolo[4,3-b]pyridine] | 893 nM
10 | CC[S+]([O-])Cn1ncc2ncc(-c3cc(F)c(F)c(F)c3)cc21 (racemic) [Example 88, (RS)-1-(Ethylsulfinylmethyl)-6-(3,4,5-trifluorophenyl)pyrazolo[4,3-b]pyridine] | 736 nM
11 | COCCC(O)Cn1ncc2ncc(-c3cccc(C(F)(F)F)c3)cc21 (racemic) [Example 90, (RS)-4-Methoxy-1-[6-[3-(trifluoromethyl)phenyl]pyrazolo[4,3-b]pyridin-1-yl]butan-2-ol] | 1420 nM
12 | CCC(O)Cn1ncc2ncc(-c3ccc(F)c(F)c3)cc21 (racemic) [Example 91, (RS)-1-[6-(3,4-Difluorophenyl)pyrazolo[4,3-b]pyridin-1-yl]butan-2-ol] | 526 nM
13 | CCC(O)Cn1ncc2ncc(-c3ccc(F)c(OC(F)F)c3)cc21 (racemic) [Example 92, (RS)-1-[6-[3-(Difluoromethoxy)-4-fluoro-phenyl]pyrazolo[4,3-b]pyridin-1-yl]butan-2-ol] | 282 nM
14 | CCC(O)Cn1ncc2ncc(-c3ccc(Cl)c(OC(F)F)c3)cc21 (racemic) [Example 93, (RS)-1-[6-[4-Chloro-3-(difluoromethoxy)phenyl]pyrazolo[4,3-b]pyridin-1-yl]butan-2-ol] | 415 nM
15 | CCC(O)Cn1nc(F)c2ncc(-c3ccc(F)c(F)c3)cc21 (racemic) [Example 94, (RS)-1-[6-(3,4-Difluorophenyl)-3-fluoro-pyrazolo[4,3-b]pyridin-1-yl]butan-2-ol] | 965 nM
16 | CC(C)C(O)Cn1ncc2ncc(-c3ccccc3)cc21 (racemic) [Example 96, (RS)-3-Methyl-1-(6-phenylpyrazolo[4,3-b]pyridin-1-yl)butan-2-ol] | 1530 nM
17 | CC(C)C(O)Cn1ncc2ncc(-c3cc(F)c(F)c(F)c3)cc21 (racemic) [Example 97, (RS)-3-Methyl-1-[6-(3,4,5-trifluorophenyl)pyrazolo[4,3-b]pyridin-1-yl]butan-2-ol] | 591 nM

The next molecules have a lower IC50 than those just listed; values first:

Row | IC50 | Structure (SMILES)
18 | 272 nM | CCC(O)Cn1ncc2ncc(-c3cccc(C(C)(F)F)c3)cc21 (racemic) [Example 95, (RS)-1-[6-[3-(1,1-Difluoroethyl)phenyl]pyrazolo[4,3-b]pyridin-1-yl]butan-2-ol]
19 | 222 nM | Cc1cc(-c2cnc3cnn(CC(O)C(C)C)c3c2)ccc1F (racemic) [Example 8, (RS)-1-[6-(4-Fluoro-3-methyl-phenyl)pyrazolo[4,3-b]pyridin-1-yl]-3-methyl-butan-2-ol]
20 | 197 nM | O=C1NCC(Cn2ncc3ncc(-c4ccc(F)c(C(F)F)c4)cc32)O1 (racemic) [Example 20, (RS)-5-[[6-[3-(Difluoromethyl)-4-fluoro-phenyl]pyrazolo[4,3-b]pyridin-1-yl]methyl]oxazolidin-2-one]
21 | 146 nM | CC[S+]([O-])Cn1ncc2ncc(-c3ccc(F)c(OC(F)F)c3)cc21 (racemic) [Example 12, (RS)-6-[3-(Difluoromethoxy)-4-fluoro-phenyl]-1-(ethylsulfinylmethyl)pyrazolo[4,3-b]pyridine]
22 | 128 nM | CC[S+]([O-])Cn1ncc2ncc(-c3cccc(C(F)(F)F)c3)cc21 (racemic) [Example 81, (RS)-1-(Ethylsulfinylmethyl)-6-[3-(trifluoromethyl)phenyl]pyrazolo[4,3-b]pyridine]
23 | 109 nM | CC[S+]([O-])Cn1ncc2ncc(-c3ccc(Cl)c(OC(F)F)c3)cc21 (racemic) [Example 87, (RS)-6-[4-Chloro-3-(difluoromethoxy)phenyl]-1-(ethylsulfinylmethyl)pyrazolo[4,3-b]pyridine]
24 | 85 nM | FC(F)(F)c1cccc(-c2cnc3cnn(CC4CCO4)c3c2)c1 (racemic) [Example 17, (RS)-1-(Oxetan-2-ylmethyl)-6-[3-(trifluoromethyl)phenyl]pyrazolo[4,3-b]pyridine]
25 | 65 nM | ON=C(Cn1ncc2ncc(-c3ccc(F)c(C(F)F)c3)cc21)C1CC1 (mixture of isomers) [Example 107, (E/Z)-1-Cyclopropyl-2-[6-[3-(difluoromethyl)-4-fluoro-phenyl]pyrazolo[4,3-b]pyridin-1-yl]ethanone oxime]
26 | 48 nM | CCC(O)Cn1ncc2ncc(-c3ccc(F)c(C(F)F)c3)cc21 (racemic) [Example 5, (RS)-1-[6-[3-(Difluoromethyl)-4-fluoro-phenyl]pyrazolo[4,3-b]pyridin-1-yl]butan-2-ol]
27 | 35 nM | Fc1ccc(-c2cnc3cnn(CC4CCCO4)c3c2)cc1C(F)F (racemic) [Example 18, (RS)-6-[3-(Difluoromethyl)-4-fluoro-phenyl]-1-(tetrahydrofuran-2-ylmethyl)pyrazolo[4,3-b]pyridine]
28 | 34 nM | CC[S+]([O-])Cn1ncc2ncc(-c3ccc(F)c(C(F)F)c3)cc21 (racemic) [Example 83, (RS)-6-(3-(Difluoromethyl)-4-fluorophenyl)-1-((ethylsulfinyl)methyl)-1H-pyrazolo[4,3-b]pyridine]
